pEC50, pIC50: −log10 of the molar value. Where a name gives a salt, the structure may show the parent alone. Read-outs that look alike come from different tables or passages of the source.
Assays:
[1] = target: BIR3 domain of human XIAP (residues 252-350) (Homo sapiens (Human), UniProt P98170); test: XIAP in vitro competitive displacement binding assay (fluorescence polarization); conditions: for pIC50: read-out: IC50 or PI Xiap: IC50; for inhibition at 0.04 µM: 1 h, read-out: IC50 or PI Xiap: PI
[2] = target: BIR3 domain of human cIAP-1 (residues 267-363) (Homo sapiens (Human), UniProt Q13490); test: cIAP-1 in vitro competitive displacement binding assay (fluorescence polarization; Probe A AVPIK(5&6FAM)-amide or Probe B AbuRPFK(5&6FAM)-amide); conditions: for inhibition at […] / inhibition at 0.01 µM: 3 h, read-out: IC50 or PI cIAP1: PI
[3] = system: EVSA-T (human breast carcinoma); test: Anti-proliferative activity, Alamar Blue assay, EVSA-T; format: cell-based; conditions: Homo sapiens
[4] = Probe B AbuRPFK(5&6FAM)-amide, read-out: IC50 or PI cIAP1: IC50
[5] = EVSA-T, 72 hours, Alamar Blue, read-out: EVSA-T prolif (EC50)
[6] = EVSA-T, 72 h, read-out: EVSA-T prolif (EC50)
[7] = read-out: IC50 or PI cIAP1: IC50

Row | pEC50 [3, 5] | Structure (SMILES) | pIC50 [1] | inhibition at […] [2] | pEC50 [3, 6] | other results
1 | 6.19 | COC[C@H]1CN[C@H](C)CN1CC(=O)N1CC(C)(C)c2cnc(C(F)(F)c3ccccc3)cc21 [Example 146, 1-{6-[Difluoro(phenyl)methyl]-3,3-dimethyl-1H,2H,3H-pyrrolo[3,2-c]pyridin-1-yl}-2-[(2R,5R)-2-(methoxymethyl)-5-methylpiperazin-1-yl]ethan-1-one hydrochloride] | 7.12 |  |  | pIC50 [2, 4]: 7.77
2 |  | C[C@@H]1CN(CC(=O)N2CC(C)(C)c3cnc(Cc4ccc(F)cc4F)cc32)[C@@H](CN2CCOC2=O)CN1 [Example 209, 3-{[(2R,5R)-1-(2-{6-[(2,4-Difluorophenyl)methyl]-3,3-dimethyl-1H,2H,3H-pyrrolo[3,2-c]pyridin-1-yl}-2-oxoethyl)-5-methylpiperazin-2-yl]methyl}-1,3-oxazolidin-2-one dihydrochloride] | 7.33 | 90% | 7.72 | 
3 | 7.09 | CCCC(F)(F)c1cnc2c(c1)N(C(=O)CN1C[C@@H](C)NC[C@@H]1CN1CC[C@@H](F)C1)CC2(C)C [Example 223, 1-[6-(1,1-Difluorobutyl)-3,3-dimethyl-1H,2H,3H-pyrrolo[3,2-b]pyridin-1-yl]-2-[(2R,5R)-2-{[(3R)-3-fluoropyrrolidin-1-yl]methyl}-5-methylpiperazin-1-yl]ethan-1-one hydrochloride] | 6.92 |  |  | inhibition at […] ([2]; Probe B, @ 0.012 μM): 62%
4 |  | C[C@@H]1CN(CC(=O)N2CC(C)(C)c3cnc(Cc4ccc(F)cc4F)cc32)[C@@H](Cn2cccnc2=O)CN1 [Example 185, 1-{[(2R,5R)-1-(2-{6-[(2,4-Difluorophenyl)methyl]-3,3-dimethyl-1H,2H,3H-pyrrolo[3,2-c]pyridin-1-yl}-2-oxoethyl)-5-methylpiperazin-2-yl]methyl}-1,2-dihydropyrimidin-2-one dihydrochloride] | 7.11 | 94% | 8.00 | 
5 | 6.85 | C[C@@H]1CN(CC(=O)N2CC(C)(C)c3cnc(Cc4ccccc4)cc32)[C@@H](C(=O)N2CCOCC2)CN1 [Example 101, 1-{6-Benzyl-3,3-dimethyl-1H,2H,3H-pyrrolo[3,2-c]pyridin-1-yl}-2-[(2R,5R)-5-methyl-2-[(morpholin-4-yl)carbonyl]piperazin-1-yl]ethan-1-one, hydrochloride salt] | 7.14 |  |  | inhibition at 0.01 µM ([2]; Probe B, @ 0.01 μM): 62%
6 |  | C[C@@H]1CN(CC(=O)N2CC(C)(C)c3ncc(Cc4ccc(F)cc4F)cc32)[C@@H](CN2CCOCC2)CN1 [Example 236, 1-{6-[(2,4-Difluorophenyl)methyl]-3,3-dimethyl-1H,2H,3H-pyrrolo[3,2-b]pyridin-1-yl}-2-[(2R,5R)-5-methyl-2-(morpholin-4-ylmethyl)piperazin-1-yl]ethan-1-one dihydrochloride] | 7.24 | 96% | 8.11 | 
7 |  | C[C@@H]1CN(CC(=O)N2CC(C)(C)c3cc(F)c(S(=O)(=O)N4CCCC4)cc32)CCN1 [Example 49, 1-[5-Fluoro-3,3-dimethyl-6-(pyrrolidine-1-sulfonyl)-2,3-dihydro-indol-1-yl]-2-((R)-3-methyl-piperazin-1-yl)-ethanone dihydrochloride salt] | 6.19 |  |  | pIC50 [2, 7]: 5.39; inhibition at 10 µM ([3]; EVSA-T, read-out: EVSA-T prolif: % inhibition): 2%
8 | 7.77 | C[C@@H]1CN(CC(=O)N2CC(C)(C)c3cnc(Cc4ccc(F)cc4F)cc32)[C@@H](CN2CCOCC2=O)CN1 [Example 191, 4-{[(2R,5R)-1-(2-{6-[(2,4-Difluorophenyl)methyl]-3,3-dimethyl-1H,2H,3H-pyrrolo[3,2-c]pyridin-1-yl}-2-oxoethyl)-5-methylpiperazin-2-yl]methyl}morpholin-3-one hydrochloride] | 7.33 |  |  | inhibition at […] ([2]; Probe B, @ 0.012 μM): 94%
9 |  | C[C@@H]1CN(CC(=O)N2CC(C)(C)c3cnc(Cc4ccc(F)cc4F)cc32)[C@@H](C(=O)N(C)C)CN1 [Example 164, (2R,5R)-1-(2-{6-[(2,4-Difluorophenyl)methyl]-3,3-dimethyl-1H,2H,3H-pyrrolo[3,2-c]pyridin-1-yl}-2-oxoethyl)-N,N,5-trimethylpiperazine-2-carboxamide dihydrochloride] | 6.92 | 86% | 7.35 | 
10 | 6.06 | CCC(F)(F)c1cc2c(cn1)C(C)(C)CN2C(=O)CN1C[C@@H](C)NC[C@@H]1CN1CCCC1=O [Example 198, 1-{[(2R,5R)-1-{2-[6-(1,1-Difluoropropyl)-3,3-dimethyl-1H,2H,3H-pyrrolo[3,2-c]pyridin-1-yl]-2-oxoethyl}-5-methylpiperazin-2-yl]methyl}pyrrolidin-2-one] |  |  |  | inhibition at 0.04 µM ([1]; @ 0.04 μM): 69%; pIC50 [2]: > 6.00; pIC50 [2, 4]: 7.64
11 |  | C[C@@H]1CN(CC(=O)N2CC(C)(C)c3cnc(Cc4ccccc4)cc32)[C@@H](C(=O)N2CCCCC2)CN1 [Example 133, 1-{6-Benzyl-3,3-dimethyl-1H,2H,3H-pyrrolo[3,2-c]pyridin-1-yl}-2-[(2R,5R)-5-methyl-2-[(piperidin-1-yl)carbonyl]piperazin-1-yl]ethan-1-one dihydrochloride] | 7.04 |  | 6.96 | inhibition at 0.01 µM [2]: 71%
12 |  | CC[C@@H]1COCCN1C[C@H]1CN[C@H](C)CN1CC(=O)N1CC(C)(C)c2ncc(C(C)(F)F)cc21 [Example 253, 1-[6-(1,1-Difluoroethyl)-3,3-dimethyl-1H,2H,3H-pyrrolo[3,2-b]pyridin-1-yl]-2-[(2R,5R)-2-{[(3R)-3-ethylmorpholin-4-yl]methyl}-5-methylpiperazin-1-yl]ethan-1-one dihydrochloride] | 7.30 |  | 7.29 | pIC50 [2]: > 6.00; pIC50 [2, 7]: 7.77
13 | 5.04 | C[C@@H]1CN(CC(=O)N2CC(C)(c3ccccc3)c3ccc(C#N)cc32)[C@@H](C(=O)N2CCOCC2)CN1 (stereo partly drawn) [Example 149, 3-Methyl-1-{2-[(2R,5R)-5-methyl-2-[(morpholin-4-yl)carbonyl]piperazin-1-yl]acetyl}-3-phenyl-2,3-dihydro-1H-indole-6-carbonitrile hydrochloride] | 7.26 |  |  | pIC50 [2, 4]: 6.89
14 | 5.11 | COC[C@H]1CN[C@H](C)CN1CC(=O)N1CC2(CN(C(C)=O)C2)c2ccc(Cl)cc21 [Example 71, 1-{1-Acetyl-6′-chloro-1′,2′-dihydrospiro[azetidine-3,3′-indole]-1′-yl}-2-[(2R,5R)-2-(methoxymethyl)-5-methylpiperazin-1-yl]ethan-1-one hydrochloride salt] | 6.31 |  |  | pIC50 [2, 4]: 6.27; pEC50 ([3]; EVSA-T cell line, 72 hours, Alamar Blue, read-out: EC50, inhibition of cell growth): > 5.00
15 | 7.32 | CC(C)CC(F)(F)c1cc2c(cn1)C(C)(C)CN2C(=O)CN1C[C@@H](C)NC[C@@H]1CN1CCCC1=O [Example 225, 1-{[(2R,5R)-1-{2-[6-(1,1-Difluoro-3-methylbutyl)-3,3-dimethyl-1H,2H,3H-pyrrolo[3,2-c]pyridin-1-yl]-2-oxoethyl}-5-methylpiperazin-2-yl]methyl}pyrrolidin-2-one hydrochloride] |  |  |  | inhibition at 0.04 µM ([1]; @ 0.04 μM): 62%; inhibition at […] ([2]; Probe B, @ 0.012 μM): 72%
16 | 5.28 | CC(=O)NC[C@H]1CN[C@H](C)CN1CC(=O)N1CC(C)(C)c2ccc(Cl)cc21 [Example 45, N-{(2R,5R)-1-[2-(6-Chloro-3,3-dimethyl-2,3-dihydro-indol-1-yl)-2-oxo-ethyl]-5-methyl-piperazin-2-ylmethyl}-acetamide hydrochloride salt] | 5.96 |  |  | pIC50 [2, 4]: 6.24

Row | Structure (SMILES) | pEC50 [3, 5] | pIC50 [1] | inhibition at […] [2] | pEC50 [3, 6] | other results
17 | C[C@@H]1CN(CC(=O)N2CC(C)(C)c3cnc(Cc4ccccc4)cc32)[C@@H](CN2CCCC2=O)CN1 [Example 172, 1-{[(2R,5R)-1-(2-{6-Benzyl-3,3-dimethyl-1H,2H,3H-pyrrolo[3,2-c]pyridin-1-yl}-2-oxoethyl)-5-methylpiperazin-2-yl]methyl}pyrrolidin-2-one dihydrochloride] | 7.25 |  | 78% |  | inhibition at 0.04 µM [1]: 58%
18 | C[C@@H]1CN(CC(=O)N2CC(C)(C)c3ncc(C(F)(F)c4ccccc4)cc32)[C@@H](CN2CCOCC2)CN1 [Example 232, 1-{6-[Difluoro(phenyl)methyl]-3,3-dimethyl-1H,2H,3H-pyrrolo[3,2-b]pyridin-1-yl}-2-[(2R,5R)-5-methyl-2-(morpholin-4-ylmethyl)piperazin-1-yl]ethan-1-one dihydrochloride] | 7.44 |  | 77% |  | inhibition at 0.04 µM [1]: 48%
19 | C[C@@H]1CN(CC(=O)N2CC(C)(C)c3cnc(Cc4ccc(F)cc4)cc32)[C@@H](CN2CCOC[C@H]2C)CN1 [Example 251, 1-{6-[(4-Fluorophenyl)methyl]-3,3-dimethyl-1H,2H,3H-pyrrolo[3,2-c]pyridin-1-yl}-2-[(2R,5R)-5-methyl-2-{[(3R)-3-methylmorpholin-4-yl]methyl}piperazin-1-yl]ethan-1-one dihydrochloride] | 9.19 |  | 99% |  | inhibition at 0.04 µM [1]: 68%
20 | C[C@@H]1CN(CC(=O)N2CC(C)(C)c3cnc(C(F)(F)c4ccccc4)cc32)[C@@H](CN2CC[C@@H](F)C2)CN1 [Example 213, 1-{6-[Difluoro(phenyl)methyl]-3,3-dimethyl-1H,2H,3H-pyrrolo[3,2-c]pyridin-1-yl}-2-[(2R,5R)-2-{[(3R)-3-fluoropyrrolidin-1-yl]methyl]-5-methylpiperazin-1-yl]ethan-1-one dihydrochloride] | 8.22 |  | 82% |  | inhibition at 0.04 µM [1]: 61%

From US9018214B2, “Bicyclic heterocycle compounds and their uses in therapy” (Astex Therapeutics Limited, priority 2011, dated 2015)
